From PubChem BioAssay AID1918940 (Molecular Pharmacology Branch, DTP, NCI, 2023)

Test system: NCI-H211 complex spheroid viability
Test: Anticancer human tumor NCI-H211 cell line growth inhibition [LSD1];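 further: luminescent viability read after seven days of drug exposure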;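 on viability, T/C: 100% = DMSO vehicle control viability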
Conditions: for IC50: curve of first compound; for viability, T/C: stronger effect = lower value
Description: Multicellular complex tumor spheroid response to LSD1 Inhibitor Iadademstat in combination with a variety of drugs and investigational agents in selected tumor cell lines
The current study was undertaken to assess response to LSD1 inhibitors in combination with standard-of-care drugs and investigational agents in solid tumor complex spheroid models as well as in the K-562 leukemia. Complex spheroids include a stromal component modeled by human endothelial cells (HUVEC) and fibroblasts modeled by human mesenchymal stem cells (MSCs). The concentration ranges selected for each drug and investigational agent were based upon clinically achievable concentrations if the clinical Cmax of the agent was known.
Compounds. The drugs and investigational agents used in this study are listed on Table 1. All of the agents used, including staurosporine (NSC755774) and gemcitabine (NSC613327), were obtained from the Developmental Therapeutics Program, NCI. FDA-approved anticancer drugs are available from the NCI at http://dtp.nci.nih.gov/branches/dscb/oncology_drugset_explanation.html. Drugs and investigational agents were >95% pure by proton nuclear magnetic resonance (NMR) and liquid chromatography/mass spectrometry (LC/MS). Stock solutions were prepared at 400x in DMSO, stored at -70 degrees C, and diluted in fresh medium prior to their use. The final concentration of DMSO in cell culture wells never exceeded 0.25% (v/v). The FDA-approved anticancer drug set is available from the Developmental Therapeutics Program at https://dtp.cancer.gov/organization/dscb/obtaining/available_plates.htm. All drugs and investigational agents were tested over a range starting from a high concentration at or near the clinical Cmax and decreasing in half-log increments. If the clinical Cmax for an agent had not been determined, the highest concentration tested was 10 microM.
Cell Lines. The patient-derived cancer cell (PDC) lines: 292921-168-R-J2-PDC, K24384-001-R-PDC, and 521955-158-R2-J5-PDC pancreatic carcinomas, 556581-035-R-J1 ovarian carcinoma, 324938-238-R-J1-PDC, 855422-203-R-J1-PDC and 883617-216-R-J1-PDC urothelial bladder carcinomas, 743489-274-T-PDC renal cell carcinoma, 138582-R-J1 Merkel cell tumor, K60290-347-R-J1 and K57222-313-R-J1-PDC glioblastomas, 653999-131-R-J2-PDC, LG0703-F948-PDC, and 349418-098-R-PDC non-small cell lung carcinomas, 885512-296-R-J2-PDC, 171881-019-R-J1-PDC breast carcinomas and 186277-243-T-J2-PDC and 233499-124-R-J2-PDC colon carcinomas were obtained from the NCI Patient-Derived Models Repository (PDMR, https://pdmr.cancer.gov). The established cell lines NCI/ADR-RES (RRID:CVCL_14520 and OVCAR-5 (RRID:CVCL_1628) ovarian carcinomas, 786-O (RRID:CVCL_1051) and A498 (RRID:CVCL_A498) renal cell carcinoma, NCI-H211 (ATCC, cat. CRL-5824; RRID:CVCL_1529), NCI-H196 (ATCC, cat. CRL-5823, RRID:CVCL_1509), SW 1271 (ATCC, cat. CRL-2177, RRID:CVCL_1716) and NCI-H1876 (ATCC, cat. CRL-5902, RRID:CVCL_1503) small cell lung carcinomas, MDA-MB-231 (RRID:CVCL_0062) and MDA-MB-468 (RRID:CVCL_0419)breast carcinomas (10-12). Pooled donor human umbilical vein endothelial cells (HUVEC, Lonza, cat. CC-2519) and human mesenchymal stem cells (hMSC, Lonza, cat. PT-2501) were purchased from Lonza (Walkersville, MD).
Cell Culture. All cells were maintained in an incubator at 37 degrees C and 5% CO2 with 95% humidity. The PDC lines were cultured according to standard operating procedures established by the NCI PDMR (https://pdmr.cancer.gov). Briefly all PDCs were thawed and cultured in Matrigel-coated flasks prepared with a working solution of 1X Ham's F-12 nutrient mix, without supplementation (Invitrogen, Waltham, MA, cat. 11765054), 100 U/mL penicillin-streptomycin (Invitrogen, cat. 15140122), and 2.5% Matrigel (Corning Inc., Corning, NY, cat. 354248) for the first three passages. […]

CC[C@@]1(O)C(=O)OCc2c1cc1n(c2=O)Cc2cc3c(CN(C)C)c(O)ccc3nc2-1 + NC1CC1c1ccc(-c2cccc(O)c2)cc1
IC50 (second compound 0.1 µM): 0.472 nM
IC50 (second compound 0.316 µM): 0.4 nM
IC50 (second compound 1 µM): 0.333 nM
IC50 (second compound 3.16 µM): < 0.316 nM
IC50 (second compound 10 µM): < 0.316 nM
viability, T/C (second compound 0.1 µM, first compound 0.000316 µM): 69.9%
viability, T/C (second compound 0.1 µM, first compound 0.001 µM): 12.8%
viability, T/C (second compound 0.1 µM, first compound 0.00316 µM): 4.7%
viability, T/C (second compound 0.1 µM, first compound 0.01 µM): 4.95%
viability, T/C (second compound 0.1 µM, first compound 0.0316 µM): 3.81%
viability, T/C (second compound 0.1 µM, first compound 0.1 µM): 2.69%
viability, T/C (second compound 0.316 µM, first compound 0.000316 µM): 60%
viability, T/C (second compound 0.316 µM, first compound 0.001 µM): 12%
viability, T/C (second compound 0.316 µM, first compound 0.00316 µM): 6.18%
viability, T/C (second compound 0.316 µM, first compound 0.01 µM): 4.37%
viability, T/C (second compound 0.316 µM, first compound 0.0316 µM): 4.53%
viability, T/C (second compound 0.316 µM, first compound 0.1 µM): 2.25%
viability, T/C (second compound 1 µM, first compound 0.000316 µM): 51.9%
viability, T/C (second compound 1 µM, first compound 0.001 µM): 11.9%
viability, T/C (second compound 1 µM, first compound 0.00316 µM): 5.4%
viability, T/C (second compound 1 µM, first compound 0.01 µM): 3.69%
viability, T/C (second compound 1 µM, first compound 0.0316 µM): 4.13%
viability, T/C (second compound 1 µM, first compound 0.1 µM): 3.19%
viability, T/C (second compound 3.16 µM, first compound 0.000316 µM): 38.7%
viability, T/C (second compound 3.16 µM, first compound 0.001 µM): 11.8%
viability, T/C (second compound 3.16 µM, first compound 0.00316 µM): 5.33%
viability, T/C (second compound 3.16 µM, first compound 0.01 µM): 5.16%
viability, T/C (second compound 3.16 µM, first compound 0.0316 µM): 5.02%
viability, T/C (second compound 3.16 µM, first compound 0.1 µM): 2.67%
viability, T/C (second compound 10 µM, first compound 0.000316 µM): 44.5%
viability, T/C (second compound 10 µM, first compound 0.001 µM): 15.3%
viability, T/C (second compound 10 µM, first compound 0.00316 µM): 4.98%
viability, T/C (second compound 10 µM, first compound 0.01 µM): 5.88%
viability, T/C (second compound 10 µM, first compound 0.0316 µM): 5.04%
viability, T/C (second compound 10 µM, first compound 0.1 µM): 2.36%

COc1cc(C2c3cc4c(cc3C(OC3OC5COC(C)OC5C(O)C3O)C3COC(=O)C23)OCO4)cc(OC)c1O (stereo not given) + NC1CC1c1ccc(-c2cccc(O)c2)cc1
IC50 (second compound 0.1 µM): < 9.49 nM
IC50 (second compound 0.316 µM): < 9.49 nM
IC50 (second compound 1 µM): < 9.49 nM
IC50 (second compound 3.16 µM): < 9.49 nM
IC50 (second compound 10 µM): < 9.49 nM
viability, T/C (second compound 0.1 µM, first compound 0.00949 µM): 43.9%
viability, T/C (second compound 0.1 µM, first compound 0.03 µM): 11.5%
viability, T/C (second compound 0.1 µM, first compound 0.0949 µM): 4.34%
viability, T/C (second compound 0.1 µM, first compound 0.3 µM): 5.07%
viability, T/C (second compound 0.1 µM, first compound 0.949 µM): 5.27%
viability, T/C (second compound 0.1 µM, first compound 3 µM): 4.24%
viability, T/C (second compound 0.316 µM, first compound 0.00949 µM): 38.7%
viability, T/C (second compound 0.316 µM, first compound 0.03 µM): 11.5%
viability, T/C (second compound 0.316 µM, first compound 0.0949 µM): 4.54%
viability, T/C (second compound 0.316 µM, first compound 0.3 µM): 4.97%
viability, T/C (second compound 0.316 µM, first compound 0.949 µM): 4.77%
viability, T/C (second compound 0.316 µM, first compound 3 µM): 4.76%
viability, T/C (second compound 1 µM, first compound 0.00949 µM): 35.6%
viability, T/C (second compound 1 µM, first compound 0.03 µM): 10.3%
viability, T/C (second compound 1 µM, first compound 0.0949 µM): 6.12%
viability, T/C (second compound 1 µM, first compound 0.3 µM): 4.33%
viability, T/C (second compound 1 µM, first compound 0.949 µM): 3.45%
viability, T/C (second compound 1 µM, first compound 3 µM): 4.65%
viability, T/C (second compound 3.16 µM, first compound 0.00949 µM): 29.2%
viability, T/C (second compound 3.16 µM, first compound 0.03 µM): 7.68%
viability, T/C (second compound 3.16 µM, first compound 0.0949 µM): 5.57%
viability, T/C (second compound 3.16 µM, first compound 0.3 µM): 5.22%
viability, T/C (second compound 3.16 µM, first compound 0.949 µM): 5.76%
viability, T/C (second compound 3.16 µM, first compound 3 µM): 3.92%
viability, T/C (second compound 10 µM, first compound 0.00949 µM): 24.8%
viability, T/C (second compound 10 µM, first compound 0.03 µM): 9.09%
viability, T/C (second compound 10 µM, first compound 0.0949 µM): 5.19%
viability, T/C (second compound 10 µM, first compound 0.3 µM): 4.7%
viability, T/C (second compound 10 µM, first compound 0.949 µM): 5%
viability, T/C (second compound 10 µM, first compound 3 µM): 4.52%
